Reference: US7799809B2, “Carboxamide compounds and their use as calpain inhibitors” (Abbott GmbH & Co. KG, priority 2006, dated 2010)

Experiments:
Type in all cases: biochemical
cathepsin K = target: T1, cathepsin K (Homo sapiens, UniProt P43235); assay: Cathepsin K enzyme inhibition in vitro (kinetic fluorescence assay); conditions: cathepsin K activated from recombinant human procathepsin K vs calpain I
T1 construct: purchased Calbiochem 342001; host or cells: E. coli
T1 sequence (P43235 115-329): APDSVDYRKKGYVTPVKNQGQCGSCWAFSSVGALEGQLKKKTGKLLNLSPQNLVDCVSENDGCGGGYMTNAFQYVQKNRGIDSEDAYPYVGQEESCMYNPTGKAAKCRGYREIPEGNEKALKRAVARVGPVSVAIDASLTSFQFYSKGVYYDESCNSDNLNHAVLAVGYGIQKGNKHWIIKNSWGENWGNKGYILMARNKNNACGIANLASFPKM

cathepsin S = target: T2, cathepsin S (Homo sapiens, UniProt P25774); assay: Cathepsin S enzyme inhibition in vitro (kinetic fluorescence assay); conditions: recombinant human cathepsin S vs calpain I
T2 construct: purchased Calbiochem 219343; host or cells: E. coli
Procedure, shortened: (§1)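 Cathepsin B (0.25 nM, human liver) with 100 μM Z-Phe-Arg-AMC; L (1 nM, human liver) with 2 μM Z-Phe-Arg-AMC; S (0.5 nM, recombinant) with 20 μM Z-Val-Val-Arg-AMC. pH 6.0 MES buffer, 2.5 mM L-cysteine, room temperature. Kinetic fluorescence (ex 390/em 460 nm); apparent Ki from IC50 by Cheng-Prusoff.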

cathepsin L = target: T3, cathepsin L (Homo sapiens, UniProt P07711); assay: Cathepsin L enzyme inhibition in vitro (kinetic fluorescence assay); conditions: cathepsin L isolated from human liver vs calpain I
T3 construct: cathepsin L—isolated from human liver (Calbiochem #219402); purchased Calbiochem 219402; host or cells: human liver (tissue-derived)
Procedure, shortened: as §1

cathepsin B = target: T4, cathepsin B (Homo sapiens, UniProt P07858); assay: Cathepsin B enzyme inhibition in vitro (kinetic fluorescence assay); conditions: cathepsin B isolated from human liver vs calpain I
T4 construct: cathepsin B—isolated from human liver (Calbiochem #219362); purchased Calbiochem 219362; host or cells: human liver (tissue-derived)
Procedure, shortened: as §1

T2 sequence (P25774 115-331): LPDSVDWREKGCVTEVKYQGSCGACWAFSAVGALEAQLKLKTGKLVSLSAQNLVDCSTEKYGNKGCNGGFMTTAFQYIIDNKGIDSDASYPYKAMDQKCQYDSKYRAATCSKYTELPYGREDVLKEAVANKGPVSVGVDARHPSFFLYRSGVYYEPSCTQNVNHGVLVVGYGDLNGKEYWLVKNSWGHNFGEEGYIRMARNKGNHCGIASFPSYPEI
T3 sequence (P07711 114-333): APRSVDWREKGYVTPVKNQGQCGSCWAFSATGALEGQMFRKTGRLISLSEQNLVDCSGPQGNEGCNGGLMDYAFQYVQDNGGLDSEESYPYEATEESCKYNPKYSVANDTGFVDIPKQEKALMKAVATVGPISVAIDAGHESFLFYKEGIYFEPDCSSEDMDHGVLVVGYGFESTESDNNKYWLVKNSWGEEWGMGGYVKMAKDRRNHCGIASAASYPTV

Compound | Sel cat. K: Ki(cathepsin K)/Ki(calpain) ratio (cathepsin K) | Sel cat. S: Ki(cathepsin S)/Ki(calpain) ratio (cathepsin S) | Sel cat. L: Ki(cathepsin L)/Ki(calpain) ratio (cathepsin L) | Sel cat. B: Ki(cathepsin B)/Ki(calpain) ratio (cathepsin B)
COc1ccc(CC(NC(=O)c2cccnc2-n2ccc(-c3ccc(F)cc3)n2)C(=O)C(N)=O)cc1 (centres unmarked) [Example 81, N-[3-Amino-1-(4-methoxybenzyl)-2,3-dioxopropyl]-2-[3-(4-fluorophenyl)-1H-pyrazol-1-yl]nicotinamide] | + (+ means 10≦Ki(cathepsin K)/Ki(calpain)<30) | ++ (++ means a Ki(cathepsin S)/Ki(calpain) ratio of ≧100) | ++ (++ means a Ki(cathepsin L)/Ki(calpain) ratio of ≧50) | + (+ means 10≦Ki(cathepsin B)/Ki(calpain)<30)
NC(=O)C(=O)C(Cc1ccccc1)NC(=O)c1cccnc1-n1ccc(-c2cccc(C(F)(F)F)c2)n1 (centres unmarked) [Example 83, N-(3-Amino-1-benzyl-2,3-dioxopropyl)-2-{3-[3-(trifluoromethyl)phenyl]-1H-pyrazol-1-yl}nicotinamide] | ++ (++ means a Ki(cathepsin K)/Ki(calpain) ratio of ≧30) | ++ (++ means a Ki(cathepsin S)/Ki(calpain) ratio of ≧100) | ++ (++ means a Ki(cathepsin L)/Ki(calpain) ratio of ≧50) | + (+ means 10≦Ki(cathepsin B)/Ki(calpain)<30)
NC(=O)C(=O)C(Cc1ccccc1)NC(=O)c1cccnc1-n1ccc(-c2c(F)cccc2F)n1 (centres unmarked) [Example 85, N-[3-Amino-2,3-dioxo-1-(phenylmethyl)propyl]-2-[3-(2,6-difluorophenyl)-1H-pyrazol-1-yl]pyridine-3-carboxamide] | ++ (++ means a Ki(cathepsin K)/Ki(calpain) ratio of ≧30) | ++ (++ means a Ki(cathepsin S)/Ki(calpain) ratio of ≧100) | ++ (++ means a Ki(cathepsin L)/Ki(calpain) ratio of ≧50) | + (+ means 10≦Ki(cathepsin B)/Ki(calpain)<30)
CC(C)c1ccc(-c2ccn(-c3ncccc3C(=O)NC(Cc3ccccc3)C(=O)C(N)=O)n2)cc1 (centres unmarked) [Example 87, N-[3-Amino-2,3-dioxo-1-(phenylmethyl)propyl]-2-{3-[4-(1-methylethyl)phenyl]-1H-pyrazol-1-yl}pyridine-3-carboxamide] | ++ (++ means a Ki(cathepsin K)/Ki(calpain) ratio of ≧30) | ++ (++ means a Ki(cathepsin S)/Ki(calpain) ratio of ≧100) | ++ (++ means a Ki(cathepsin L)/Ki(calpain) ratio of ≧50) | ++ (++ means a Ki(cathepsin B)/Ki(calpain) ratio of ≧30)
Cl.NC(=O)C(=O)C(Cc1cccnc1)NC(=O)c1cccnc1-n1ccc(-c2ccccc2)n1 (centres unmarked) [Example 88, N-[3-Amino-2,3-dioxo-1-(pyridin-3-ylmethyl)propyl]-2-(3-phenyl-1H-pyrazol-1-yl)pyridine-3-carboxamide hydrochloride] | ++ (++ means a Ki(cathepsin K)/Ki(calpain) ratio of ≧30) | ++ (++ means a Ki(cathepsin S)/Ki(calpain) ratio of ≧100) | ++ (++ means a Ki(cathepsin L)/Ki(calpain) ratio of ≧50) | + (+ means 10≦Ki(cathepsin B)/Ki(calpain)<30)
COc1ccccc1-c1ccn(-c2ncccc2C(=O)NC(Cc2ccccc2)C(=O)C(N)=O)n1 (centres unmarked) [Example 90, N-[3-Amino-2,3-dioxo-1-(phenylmethyl)propyl]-2-{3-[2-(methyloxy)phenyl]-1H-pyrazol-1-yl}pyridine-3-carboxamide] | + (+ means 10≦Ki(cathepsin K)/Ki(calpain)<30) | ++ (++ means a Ki(cathepsin S)/Ki(calpain) ratio of ≧100) | ++ (++ means a Ki(cathepsin L)/Ki(calpain) ratio of ≧50) | ++ (++ means a Ki(cathepsin B)/Ki(calpain) ratio of ≧30)
NC(=O)C(=O)C(Cc1ccccc1)NC(=O)c1cccnc1-n1ccc(-c2cc(F)cc(F)c2)n1 (centres unmarked) [Example 91, N-[3-Amino-2,3-dioxo-1-(phenylmethyl)propyl]-2-[3-(3,5-difluorophenyl)-1H-pyrazol-1-yl]pyridine-3-carboxamide] | + (+ means 10≦Ki(cathepsin K)/Ki(calpain)<30) | ++ (++ means a Ki(cathepsin S)/Ki(calpain) ratio of ≧100) | ++ (++ means a Ki(cathepsin L)/Ki(calpain) ratio of ≧50) | ++ (++ means a Ki(cathepsin B)/Ki(calpain) ratio of ≧30)
COc1ccc(CC(NC(=O)c2cccnc2-n2ccc(-c3ccccc3F)n2)C(=O)C(N)=O)cc1 (centres unmarked) [Example 92, N-(3-Amino-1-{[4-(methyloxy)phenyl]methyl}-2,3-dioxopropyl)-2-[3-(2-fluorophenyl)-1H-pyrazol-1-yl]pyridine-3-carboxamide] | + (+ means 10≦Ki(cathepsin K)/Ki(calpain)<30) | ++ (++ means a Ki(cathepsin S)/Ki(calpain) ratio of ≧100) | ++ (++ means a Ki(cathepsin L)/Ki(calpain) ratio of ≧50) | ++ (++ means a Ki(cathepsin B)/Ki(calpain) ratio of ≧30)
Cc1ccccc1-c1ccn(-c2ncccc2C(=O)NC(Cc2ccccc2)C(=O)C(N)=O)n1 (centres unmarked) [Example 93, N-[3-Amino-2,3-dioxo-1-(phenylmethyl)propyl]-2-[3-(2-methylphenyl)-1H-pyrazol-1-yl]pyridine-3-carboxamide] | + (+ means 10≦Ki(cathepsin K)/Ki(calpain)<30) | ++ (++ means a Ki(cathepsin S)/Ki(calpain) ratio of ≧100) | ++ (++ means a Ki(cathepsin L)/Ki(calpain) ratio of ≧50) | ++ (++ means a Ki(cathepsin B)/Ki(calpain) ratio of ≧30)
NC(=O)C(=O)C(Cc1ccccc1)NC(=O)c1cccnc1-n1ccc(-c2ccc(F)cc2F)n1 (centres unmarked) [Example 94, N-[3-Amino-2,3-dioxo-1-(phenylmethyl)propyl]-2-[3-(2,4-difluorophenyl)-1H-pyrazol-1-yl]pyridine-3-carboxamide] | + (+ means 10≦Ki(cathepsin K)/Ki(calpain)<30) | ++ (++ means a Ki(cathepsin S)/Ki(calpain) ratio of ≧100) | ++ (++ means a Ki(cathepsin L)/Ki(calpain) ratio of ≧50) | ++ (++ means a Ki(cathepsin B)/Ki(calpain) ratio of ≧30)
NC(=O)C(=O)C(Cc1ccccc1)NC(=O)c1cccnc1-n1ccc(-c2c(Cl)cccc2Cl)n1 (centres unmarked) [Example 95, N-[3-Amino-2,3-dioxo-1-(phenylmethyl)propyl]-2-[3-(2,6-dichlorophenyl)-1H-pyrazol-1-yl]pyridine-3-carboxamide] | ++ (++ means a Ki(cathepsin K)/Ki(calpain) ratio of ≧30) | ++ (++ means a Ki(cathepsin S)/Ki(calpain) ratio of ≧100) | ++ (++ means a Ki(cathepsin L)/Ki(calpain) ratio of ≧50) | ++ (++ means a Ki(cathepsin B)/Ki(calpain) ratio of ≧30)
NC(=O)C(=O)C(Cc1ccccc1)NC(=O)c1cccnc1-n1ccc(-c2cccc(OCc3ccccc3)c2)n1 (centres unmarked) [Example 96, N-[3-Amino-2,3-dioxo-1-(phenylmethyl)propyl]-2-(3-{3-[(phenylmethyl)oxy]phenyl}-1H-pyrazol-1-yl)pyridine-3-carboxamide] | ++ (++ means a Ki(cathepsin K)/Ki(calpain) ratio of ≧30) | ++ (++ means a Ki(cathepsin S)/Ki(calpain) ratio of ≧100) | ++ (++ means a Ki(cathepsin L)/Ki(calpain) ratio of ≧50) | ++ (++ means a Ki(cathepsin B)/Ki(calpain) ratio of ≧30)
COc1ccc(CC(NC(=O)c2cccnc2-n2ccc(-c3ccc(F)cc3F)n2)C(=O)C(N)=O)cc1 (centres unmarked) [Example 97, N-(3-Amino-1-{[4-(methyloxy)phenyl]methyl}-2,3-dioxopropyl)-2-[3-(2,4-difluorophenyl)-1H-pyrazol-1-yl]pyridine-3-carboxamide] | + (+ means 10≦Ki(cathepsin K)/Ki(calpain)<30) | ++ (++ means a Ki(cathepsin S)/Ki(calpain) ratio of ≧100) | ++ (++ means a Ki(cathepsin L)/Ki(calpain) ratio of ≧50) | ++ (++ means a Ki(cathepsin B)/Ki(calpain) ratio of ≧30)
COc1ccc(CC(NC(=O)c2cccnc2-n2ccc(-c3ccc(Cl)cc3Cl)n2)C(=O)C(N)=O)cc1 (centres unmarked) [Example 98, N-(3-Amino-1-{[4-(methyloxy)phenyl]methyl}-2,3-dioxopropyl)-2-[3-(2,4-dichlorophenyl)-1H-pyrazol-1-yl]pyridine-3-carboxamide] | ++ (++ means a Ki(cathepsin K)/Ki(calpain) ratio of ≧30) | ++ (++ means a Ki(cathepsin S)/Ki(calpain) ratio of ≧100) | ++ (++ means a Ki(cathepsin L)/Ki(calpain) ratio of ≧50) | ++ (++ means a Ki(cathepsin B)/Ki(calpain) ratio of ≧30)
